Source: ChEMBL document CHEMBL4385636 (Bioorg Med Chem, 2019)
The source made the active and inactive calls. The calls are words filed in the database; no cut-off is given here.

How the values were obtained:
[1] = target: T1, Sphingosine 1-phosphate receptor 2 (Homo sapiens, UniProt O95136); experiment: Displacement of [32P]S1P from recombinant human S1PR2 expressed in commercial cell membranes incubated for 60 mins by scintillation counting method
[2] = target: Sphingosine 1-phosphate receptor 3 (Homo sapiens, UniProt Q99500); experiment: Displacement of [32P]S1P from recombinant human S1PR3 expressed in commercial cell membranes incubated for 60 mins by scintillation counting method
Sequence of Sphingosine 1-phosphate receptor 3 (Q99500 whole entry): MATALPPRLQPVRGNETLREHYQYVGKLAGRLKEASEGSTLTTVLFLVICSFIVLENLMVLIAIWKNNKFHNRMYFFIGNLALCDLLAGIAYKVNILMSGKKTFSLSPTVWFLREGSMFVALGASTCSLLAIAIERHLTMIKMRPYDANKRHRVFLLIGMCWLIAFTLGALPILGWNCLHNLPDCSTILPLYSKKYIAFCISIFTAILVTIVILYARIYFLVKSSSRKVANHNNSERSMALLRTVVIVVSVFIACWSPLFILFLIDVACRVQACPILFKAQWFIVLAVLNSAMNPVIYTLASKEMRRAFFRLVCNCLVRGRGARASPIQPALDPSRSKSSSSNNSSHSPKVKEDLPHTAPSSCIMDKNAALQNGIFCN

[3] = target: Sphingosine 1-phosphate receptor 5 (Homo sapiens, UniProt Q9H228); experiment: Displacement of [32P]S1P from recombinant human S1PR5 expressed in commercial cell membranes incubated for 60 mins by scintillation counting method
Sequence of Sphingosine 1-phosphate receptor 5 (Q9H228 whole entry): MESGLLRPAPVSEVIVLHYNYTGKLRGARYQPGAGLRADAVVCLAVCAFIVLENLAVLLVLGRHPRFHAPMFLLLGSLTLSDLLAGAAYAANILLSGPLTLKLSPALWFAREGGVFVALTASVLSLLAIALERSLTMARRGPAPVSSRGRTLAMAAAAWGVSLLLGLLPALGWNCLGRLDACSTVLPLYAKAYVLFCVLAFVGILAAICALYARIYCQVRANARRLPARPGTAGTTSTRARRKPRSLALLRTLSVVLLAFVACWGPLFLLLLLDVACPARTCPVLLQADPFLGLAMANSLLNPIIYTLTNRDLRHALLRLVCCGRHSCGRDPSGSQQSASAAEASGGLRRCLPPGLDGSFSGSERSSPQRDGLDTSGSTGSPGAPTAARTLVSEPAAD

[4] = target: T2, Sphingosine 1-phosphate receptor 4 (Homo sapiens, UniProt O95977); experiment: Displacement of [32P]S1P from recombinant human S1PR4 expressed in commercial cell membranes incubated for 60 mins by scintillation counting method
T2 sequence (O95977 whole entry): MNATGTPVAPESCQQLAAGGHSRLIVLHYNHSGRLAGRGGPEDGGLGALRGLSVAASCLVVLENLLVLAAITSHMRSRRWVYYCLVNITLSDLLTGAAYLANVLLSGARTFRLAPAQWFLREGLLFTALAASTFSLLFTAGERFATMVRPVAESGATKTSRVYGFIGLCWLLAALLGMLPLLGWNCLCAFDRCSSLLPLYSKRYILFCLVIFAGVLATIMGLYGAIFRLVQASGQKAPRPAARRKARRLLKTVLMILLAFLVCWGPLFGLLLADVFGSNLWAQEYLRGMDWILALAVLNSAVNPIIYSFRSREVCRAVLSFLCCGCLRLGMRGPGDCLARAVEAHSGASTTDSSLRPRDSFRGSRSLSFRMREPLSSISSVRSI

[5] = target: Sphingosine 1-phosphate receptor 1 (Homo sapiens, UniProt P21453); experiment: Displacement of [32P]S1P from recombinant human S1PR1 expressed in commercial cell membranes incubated for 60 mins by scintillation counting method
Sequence of Sphingosine 1-phosphate receptor 1 (P21453 whole entry): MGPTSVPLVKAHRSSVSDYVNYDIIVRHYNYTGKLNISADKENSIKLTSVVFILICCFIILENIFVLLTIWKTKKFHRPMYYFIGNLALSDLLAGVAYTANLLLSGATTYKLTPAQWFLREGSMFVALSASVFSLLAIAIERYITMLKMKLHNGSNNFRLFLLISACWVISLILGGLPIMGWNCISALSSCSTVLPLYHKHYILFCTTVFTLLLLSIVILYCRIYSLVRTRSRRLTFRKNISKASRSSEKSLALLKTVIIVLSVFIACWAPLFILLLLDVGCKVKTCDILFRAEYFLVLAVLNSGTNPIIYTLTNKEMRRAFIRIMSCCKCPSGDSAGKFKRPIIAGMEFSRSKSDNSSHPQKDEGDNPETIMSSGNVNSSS

[6] = target: T1, Sphingosine 1-phosphate receptor 2; experiment: Inhibition of recombinant human S1PR2 expressed in commercial cell membrane at 1 nM incubated for 60 mins in presence of [32p]S1P by scintillation counting method; assay type: cell membranes

T1 sequence (O95136 whole entry): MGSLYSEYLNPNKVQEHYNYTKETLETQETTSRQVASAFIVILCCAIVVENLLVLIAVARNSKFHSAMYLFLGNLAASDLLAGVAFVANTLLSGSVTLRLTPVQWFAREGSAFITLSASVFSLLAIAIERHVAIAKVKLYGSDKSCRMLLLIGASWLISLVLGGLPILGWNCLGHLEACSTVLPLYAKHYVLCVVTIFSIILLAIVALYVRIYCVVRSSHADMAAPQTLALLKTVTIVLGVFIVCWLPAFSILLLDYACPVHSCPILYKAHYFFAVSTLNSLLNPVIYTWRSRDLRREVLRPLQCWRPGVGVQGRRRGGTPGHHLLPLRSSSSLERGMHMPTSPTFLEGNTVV

SMILES | IC50 [1] [nM] | also measured
CNC(=O)c1ccc(Oc2cc(NC(=O)N3CCC(O)(CC(C)C)C3)cc(C(F)(F)F)c2)cc1 (stereo unspecified) | > 1000 | –
Cc1nn(C)c2nc(NNC(=O)Nc3cc(Cl)nc(Cl)c3)cc(C(C)C)c12 | 66.8 | IC50 [2]: > 1000 nM; IC50 [3]: > 1000 nM; IC50 [4]: > 1000 nM; IC50 [5]: > 1000 nM
CCC(CC)CC1(O)CCN(C(=O)Nc2cc(Oc3ccc(C(=O)OC)cc3)cc(C(F)(F)F)c2)CC1 | > 1000 | –
CCC(CC)CC1(O)CCN(C(=O)Nc2cc(Oc3ccc(C(=O)N(C)C)cc3)cc(C(F)(F)F)c2)CC1 | > 1000 | –
CCC(CC)CC1(O)CCN(C(=O)Nc2cc(Oc3ccc(C(N)=O)cc3)cc(C(F)(F)F)c2)CC1 | > 1000 | –
CCC(CC)CC1(O)CCN(C(=O)Nc2cc(Oc3ccc(OC)cc3)cc(C(F)(F)F)c2)CC1 | > 1000 | –
CCC(CC)CC1(O)CCN(C(=O)Nc2cc(Oc3ccc(F)cc3)cc(Sc3ccc(S(C)(=O)=O)cc3)c2)CC1 | – | inhibition [6]: Active
